Laboratory results taken from patent US20060045953A1 (priority 2004, published 2006).
Where two headings read alike, the source gives them in different places.

Target: T1, hT1R2/hT1R3 sweet receptor (Homo sapiens, UniProt Q7RTX0+Q8TE23)
T1 construct: expressed in transfected cells; host or cells: HEK293 derivative stably expressing Gα15, clone S-9
T1 sequence (Q8TE23 20-839): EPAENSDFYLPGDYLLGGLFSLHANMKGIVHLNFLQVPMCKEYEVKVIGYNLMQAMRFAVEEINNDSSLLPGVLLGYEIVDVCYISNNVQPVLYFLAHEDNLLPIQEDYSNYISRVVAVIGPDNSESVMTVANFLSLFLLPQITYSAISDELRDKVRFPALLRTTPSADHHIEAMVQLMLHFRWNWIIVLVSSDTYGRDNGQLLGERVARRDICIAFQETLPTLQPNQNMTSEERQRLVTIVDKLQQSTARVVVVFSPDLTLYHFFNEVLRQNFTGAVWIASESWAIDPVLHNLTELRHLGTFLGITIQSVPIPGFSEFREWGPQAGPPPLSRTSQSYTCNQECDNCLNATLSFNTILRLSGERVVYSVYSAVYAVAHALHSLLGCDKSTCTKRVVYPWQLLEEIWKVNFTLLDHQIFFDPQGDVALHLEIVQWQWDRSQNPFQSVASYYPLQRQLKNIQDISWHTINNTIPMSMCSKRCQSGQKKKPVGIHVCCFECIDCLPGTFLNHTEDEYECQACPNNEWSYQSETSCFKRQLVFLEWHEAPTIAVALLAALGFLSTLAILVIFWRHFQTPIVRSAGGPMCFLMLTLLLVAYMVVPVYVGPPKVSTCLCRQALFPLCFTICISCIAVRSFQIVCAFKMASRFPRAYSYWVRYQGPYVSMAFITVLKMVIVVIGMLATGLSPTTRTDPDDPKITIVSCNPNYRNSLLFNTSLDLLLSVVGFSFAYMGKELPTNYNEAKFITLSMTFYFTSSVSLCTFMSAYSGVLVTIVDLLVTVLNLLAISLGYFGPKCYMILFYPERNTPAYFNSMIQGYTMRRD
T1 sequence (Q7RTX0 21-852): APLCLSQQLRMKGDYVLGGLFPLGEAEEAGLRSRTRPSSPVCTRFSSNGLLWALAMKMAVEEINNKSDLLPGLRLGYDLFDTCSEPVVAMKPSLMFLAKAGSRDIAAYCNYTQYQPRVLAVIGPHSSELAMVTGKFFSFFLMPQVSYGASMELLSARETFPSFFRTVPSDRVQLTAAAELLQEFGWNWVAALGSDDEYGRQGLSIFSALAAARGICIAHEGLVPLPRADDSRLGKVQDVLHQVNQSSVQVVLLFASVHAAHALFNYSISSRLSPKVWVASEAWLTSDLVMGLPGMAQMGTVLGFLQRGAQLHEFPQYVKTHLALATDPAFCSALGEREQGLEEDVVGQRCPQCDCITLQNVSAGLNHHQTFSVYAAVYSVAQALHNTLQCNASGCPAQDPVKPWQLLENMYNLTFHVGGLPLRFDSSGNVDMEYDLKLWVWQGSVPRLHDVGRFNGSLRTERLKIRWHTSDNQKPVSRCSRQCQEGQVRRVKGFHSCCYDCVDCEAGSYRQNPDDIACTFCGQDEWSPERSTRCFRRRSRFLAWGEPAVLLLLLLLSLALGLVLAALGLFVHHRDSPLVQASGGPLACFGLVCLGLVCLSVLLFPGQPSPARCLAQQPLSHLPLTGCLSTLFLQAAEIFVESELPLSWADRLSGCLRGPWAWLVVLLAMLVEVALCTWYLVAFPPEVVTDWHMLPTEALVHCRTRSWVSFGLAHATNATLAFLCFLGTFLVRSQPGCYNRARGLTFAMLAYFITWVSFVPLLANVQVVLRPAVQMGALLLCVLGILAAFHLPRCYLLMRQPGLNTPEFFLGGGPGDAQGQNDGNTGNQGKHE
Test: In vitro hT1R2/hT1R3 sweet taste receptor activation assay (FLIPR, dose response)
Format: cell-based
Procedure: Activity was determined using an automated fluorometric imaging assay on a FLIPR instrument (Fluorometric Intensity Plate Reader, Molecular Devices, Sunnyvale, Calif.) (designated FLIPR assay). […] S-9 cells were grown for 24 hours at 37° C. S-9 cells were then loaded with the calcium dye Fluo-3AM (Molecular Probes, Eugene, Oreg.), 4 µM in a phosphate buffered saline (D-PBS) (Invitrogen, Carlsbad, Calif.), for 1 hour at room temperature. After replacement with 25 µl D-PBS, stimulation was performed in the FLIPR instrument and at room temperature by the addition of 25 µl D-PBS supplemented with different stimuli at concentrations corresponding to twice the desired final level.
For dose-responses analysis, stimuli were presented in duplicates at 10 different concentrations ranging from 60 nM to 30 µM. Activities were normalized to the response obtained with 400 mM D-fructose, a concentration that elicits maximum receptor response. EC50s were determined using a non-linear regression algorithm (using a Senomyx, Inc. software), where the Hill slope, bottom asymptotes and top asymptotes were allow to vary.

[1] = Table E, Sweet Enhancer Amides, read-out: Sweet EC50
[2] = read-out: EC50 for activation of a hT1R2/hT1R3 sweet receptor expressed in an HEK293 cell line

For `Cc1c(F)c(F)c(C(=O)NC(C)C(C)C)c(F)c1F` (centres unmarked) [Example E27, 2,3,5,6-tetrafluoro-4-methyl-N-(3-methylbutan-2-yl)benzamide], the EC50 [1] was 0.14 µM.

In the case of `O=C(N[C@@H]1CCCc2ccccc21)c1cccc(Cl)c1O` [Example E2, (R)-3-chloro-2-hydroxy-N-(1,2,3,4-tetrahydronaphthalen-1-yl)benzamide], the EC50 [1] is reported as 0.65 µM.

Molecule `CC1CCC(NC(=O)c2cccc(Cl)c2O)c2ccccc21` (centres unmarked) [Example E4, 3-chloro-2-hydroxy-N-(4-methyl-1,2,3,4-tetrahydronaphthalen-1-yl)benzamide] has an EC50 [1] of 1.61 µM.

`COc1cc(Cl)c(NC(=O)c2cccc(C(F)(F)F)c2)c(OC)c1` [Example E85, N-(2-Chloro-4,6-dimethoxy-phenyl)-3-trifluoromethyl-benzamide] showed an EC50 [1] of 1.42 µM.

In the case of `Cc1c(F)c(F)c(C(=O)NC(C)CCC(C)C)c(F)c1F` (centres unmarked) [Example E70, 2,3,5,6-tetrafluoro-4-methyl-N-(5-methylhexan-2-yl)benzamide], the EC50 [1] is reported as 3.2 µM.

`CCCc1nocc1C(=O)N[C@@H]1CCCc2c(C)cc(C)cc21` [Example E125, (R)-N-(5,7-dimethyl-1,2,3,4-tetrahydronaphthalen-1-yl)-3-propylisoxazole-4-carboxamide] was tested, and the EC50 [1] was 0.62 µM.

Work on `C=CCc1c(F)c(F)c(C(=O)N[C@@H](C)C(C)C)c(F)c1F` [Example 191, (S)-4-allyl-2,3,5,6-tetrafluoro-N-(3-methylbutan-2-yl)benzamide] yielded an EC50 [2] of 0.14 µM.

`COc1ccc2c(c1)[C@H](NC(=O)c1cccc(Cl)c1O)CCC2` [Example 184, (R)-3-Chloro-2-hydroxy-N-(7-methoxy-1,2,3,4-tetrahydronaphthalen-1-yl)benzamide] gave an EC50 [2] of 0.26 µM.

`CC1CCCCC1NC(=O)c1cccc(C(F)(F)F)c1` (centres unmarked) [Example E59, N-(2-methylcyclohexyl)-3-(trifluoromethyl)benzamide] gave an EC50 [1] of 2.34 µM.

`CC12CCC(C1)C(C)(C)C2NC(=O)c1cccs1` (centres unmarked) [Example E73, Thiophene-2-carboxylic acid (1,3,3-trimethyl-bicyclo[2.2.1]hept-2-yl)-amide] was tested, and the EC50 [1] was 3.36 µM.

`COc1ccc(NC(=O)N2Cc3ccccc3C2)c(C)c1` [Example 173, N-(4-methoxy-2-methylphenyl)isoindoline-2-carboxamide] showed an EC50 [2] of 4.5 µM.

In the case of `Cc1ccc(NC(=O)N2CCc3ccccc3C2)cc1` [Example E111, N-p-tolyl-3,4-dihydroisoquinoline-2(1H)-carboxamide], the EC50 [1] is reported as 4.27 µM.

`Cc1cccc2c1CCC[C@H]2NC(=O)c1cccc(Cl)c1O` [Example E126, (R)-3-chloro-2-hydroxy-N-(5-methyl-1,2,3,4-tetrahydronaphthalen-1-yl)benzamide] gave an EC50 [1] of 0.89 µM.

Work on `COc1ccc(NC(=O)c2ccc(F)c(Cl)c2)c(OC)c1` [Example E94, 3-chloro-N-(2,4-dimethoxyphenyl)-4-fluorobenzamide] yielded an EC50 [1] of 3.56 µM.

For `O=C(NC1CCCc2c(O)cccc21)c1cccc(Cl)c1O` (centres unmarked) [Example E3, 3-chloro-2-hydroxy-N-(5-hydroxy-1,2,3,4-tetrahydronaphthalen-1-yl)benzamide], the EC50 [1] was 1.03 µM.

Work on `Cc1c(F)c(F)c(C(=O)N[C@@H](C)C(C)C)c(F)c1F` [Example 163, (S)-2,3,5,6-tetrafluoro-4-methyl-N-(3-methylbutan-2-yl)benzamide] yielded an EC50 [2] of 0.6 µM.

Work on `CC1CCc2ccccc2C1NC(=O)c1cccc(Cl)c1O` (centres unmarked) [Example 179, 3-Chloro-2-hydroxy-N-(2-methyl-1,2,3,4-tetrahydronaphthalen-1-yl)benzamide] yielded an EC50 [2] of 0.38 µM.

In the case of `COc1ccc(NC(=O)N2Cc3cccc(C)c3C2)c(C)c1` [Example E116, N-(4-methoxy-2-methylphenyl)-4-methylisomdoline-2-carboxamide], the EC50 [1] is reported as 0.71 µM.

`CC1CCCC(NC(=O)c2cncc(Br)c2)C1C` (centres unmarked) [Example E55, 5-bromo-N-(2,3-dimethylcyclohexyl)mcotmamide] gave an EC50 [1] of 1.89 µM.

Work on `Cc1cc(-c2ccco2)cc(C)c1C(=O)NC1CCCCC1C` (centres unmarked) [Example 202, 4-(furan-2-yl)-2,6-dimethyl-N-(2-methylcyclohexyl)benzamide] yielded an EC50 [2] of 1.02 µM.

Molecule `O=C(Nc1ccc(F)cc1F)c1cc(Cl)ccc1O` [Example E89, 5-Chloro-N-(2,4-difluoro-phenyl)-2-hydroxy-benzamide] has an EC50 [1] of 2.56 µM.

Molecule `CCCOc1cc(C)c(C(=O)NC2CCCCC2C)c(C)c1` (centres unmarked) [Example 201, 2,6-dimethyl-N-(2-methylcyclohexyl)-4-propoxybenzamide] has an EC50 [2] of 0.69 µM.

With `COc1cccc2c1CCCC2NC(=O)c1cccc(C)c1O` (centres unmarked) [Example E122, 2-hydroxy-N-(5-methoxy-1,2,3,4-tetrahydronaphthalen-1-yl)-3-methylbenzamide] the EC50 [1] was 1.95 µM.

With `C=CCc1c(F)c(F)c(C(=O)N[C@@H](C)C(C)(C)C)c(F)c1F` [Example E130, (S)-4-allyl-N-(3,3-dimethylbutan-2-yl)-2,3,5,6-tetrafluorobenzamide] the EC50 [1] was 0.43 µM.

For `COc1ccc(NC(=O)c2cc(Cl)c(OC)c(Cl)c2)cc1` [Example E93, 3,5-dicbloro-4-methoxy-N-(4-methoxyphenyl)benzamide], the EC50 [1] was 3.24 µM.

`Cc1c(F)cccc1C(=O)N[C@H]1CCCc2ccccc21` [Example E19, (S)-3-fluoro-2-methyl-N-(1,2,3,4-tetrahydronaphthalen-1-yl)benzamide] showed an EC50 [1] of 3.57 µM.

With `CC(C)C(NC(=O)c1c(O)cccc1O)C(C)C` [Example E79, N-(2,4-dimethylpentan-3-yl)-2,6-dihydroxybenzamide] the EC50 [1] was 4.28 µM.

`CCc1cccc(NC(=O)c2c(C)cccc2OC)c1` [Example E98, N-(3-ethylphenyl)-2-methoxy-6-methylbenzamide] gave an EC50 [1] of 4.63 µM.

`CCCCC(C)NC(=O)c1c(F)c(F)c(C)c(F)c1F` (centres unmarked) [Example E34, 2,3,5,6-tetrafluoro-N-(hexan-2-yl)-4-methylbenzamide] gave an EC50 [1] of 0.71 µM.

`CCc1nocc1C(=O)N[C@@H]1CCCc2c(OC)cccc21` [Example 187, (R)-3-Ethyl-N-(5-methoxy-1,2,3,4-tetrahydronaphthalen-1-yl)isoxazole-4-carboxamide] gave an EC50 [2] of 0.4 µM.

In the case of `COc1c(Cl)ccc(Cl)c1C(=O)Nc1ccccc1F` [Example E84, 3,6-dichloro-N-(2-fluorophenyl)-2-methoxybenzamide], the EC50 [1] is reported as 0.83 µM.

In the case of `COc1cccc2c1CCCC2NC(=O)c1cccc(O)c1O` (centres unmarked) [Example E10, 2,3-dihydroxy-N-(5-methaxy-1,2,3,4-tetrahydronaphthalen-1-yl)benzamide], the EC50 [1] is reported as 2.44 µM.

`Cc1cccc2c1CN(C(=O)Nc1ccc3c(c1)OCO3)C2` [Example 199, N-(3,4-(methylenedioxy)phenyl)-4-methylisoindoline-2-carboxamide] showed an EC50 [2] of 0.95 µM.

Work on `O=C(Nc1c(F)cc(Br)cc1F)N1Cc2cccc([N+](=O)[O-])c2C1` [Example 196, N-(4-Bromo-2,6-difluorophenyl)-4-nitroisoindoline-2-carboxamide] yielded an EC50 [2] of 1.07 µM.

`CC1CCCCC1NC(=O)c1c(Cl)cccc1Cl` (centres unmarked) [Example E39, 2,6-dichloro-N-(2-methylcyclohexyl)benzamide] gave an EC50 [1] of 0.91 µM.
